The results in this text go back to PMC10840383, “Clinical features, functional consequences, and rescue pharmacology of missense GRID1 and GRID2 human variants” (Human Molecular Genetics, 2023).

Positions count from the first letter of the chain named. Where “and” joins values, the source holds several entries; their conditions need not be identical. Identical values can stand only once. Like-named read-outs stand apart in the source and are kept apart here.

Holding throughout (format): cell-based
In one test the target is T1, GluD2-T649A (Rattus norvegicus, UniProt Q63226, T649A).
T1 construct: expressed in transfected cells; host or cells: Xenopus laevis oocytes injected with cRNA
T1 sequence (Q63226 24-1007 T649A): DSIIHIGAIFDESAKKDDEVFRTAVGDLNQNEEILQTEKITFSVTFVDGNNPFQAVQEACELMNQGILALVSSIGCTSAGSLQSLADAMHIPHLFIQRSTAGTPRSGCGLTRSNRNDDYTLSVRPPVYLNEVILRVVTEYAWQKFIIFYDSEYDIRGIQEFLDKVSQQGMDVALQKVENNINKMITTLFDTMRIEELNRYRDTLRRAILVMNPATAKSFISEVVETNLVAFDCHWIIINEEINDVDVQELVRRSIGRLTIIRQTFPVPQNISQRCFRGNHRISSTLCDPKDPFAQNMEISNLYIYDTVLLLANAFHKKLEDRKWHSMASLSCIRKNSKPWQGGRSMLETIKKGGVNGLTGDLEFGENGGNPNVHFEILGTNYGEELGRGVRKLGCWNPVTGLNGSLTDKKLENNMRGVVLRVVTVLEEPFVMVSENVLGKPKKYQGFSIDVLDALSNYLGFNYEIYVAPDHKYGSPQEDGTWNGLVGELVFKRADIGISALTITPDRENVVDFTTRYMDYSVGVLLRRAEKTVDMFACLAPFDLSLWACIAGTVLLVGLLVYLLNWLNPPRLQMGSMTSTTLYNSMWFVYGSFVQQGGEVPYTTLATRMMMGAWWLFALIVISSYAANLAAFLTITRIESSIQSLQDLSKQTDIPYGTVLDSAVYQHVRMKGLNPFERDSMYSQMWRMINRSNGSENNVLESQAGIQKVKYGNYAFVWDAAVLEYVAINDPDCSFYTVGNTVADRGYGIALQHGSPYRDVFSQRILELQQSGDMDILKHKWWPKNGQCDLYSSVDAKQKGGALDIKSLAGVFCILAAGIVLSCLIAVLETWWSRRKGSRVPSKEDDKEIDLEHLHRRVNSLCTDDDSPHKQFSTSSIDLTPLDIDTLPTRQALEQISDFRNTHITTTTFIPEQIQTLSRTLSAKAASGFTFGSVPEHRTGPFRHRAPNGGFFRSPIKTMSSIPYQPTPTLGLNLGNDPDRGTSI
Nature of the test: TEVC of constitutive current, Xenopus oocytes expressing GluD2-T649A. The settings on record: for IC50: read-out: Pentamidine IC50.

The next test addresses T2, GluD2-L656V (Rattus norvegicus, UniProt Q63226, L656V).
T2 construct: expressed in transfected cells; host or cells: Xenopus laevis oocytes injected with cRNA
T2 sequence (Q63226 24-1007 L656V): T1 sequence (Q63226 24-1007 T649A) with A626T, L633V
The test is described as follows: TEVC of constitutive current, Xenopus oocytes expressing GluD2-L656V.

The target in the next test is T3, GluD1-N651S (Homo sapiens, UniProt Q9ULK0, N651S).
T3 construct: expressed in transfected cells; host or cells: Xenopus laevis oocytes injected with cRNA
T3 sequence (Q9ULK0 21-1009 N651S): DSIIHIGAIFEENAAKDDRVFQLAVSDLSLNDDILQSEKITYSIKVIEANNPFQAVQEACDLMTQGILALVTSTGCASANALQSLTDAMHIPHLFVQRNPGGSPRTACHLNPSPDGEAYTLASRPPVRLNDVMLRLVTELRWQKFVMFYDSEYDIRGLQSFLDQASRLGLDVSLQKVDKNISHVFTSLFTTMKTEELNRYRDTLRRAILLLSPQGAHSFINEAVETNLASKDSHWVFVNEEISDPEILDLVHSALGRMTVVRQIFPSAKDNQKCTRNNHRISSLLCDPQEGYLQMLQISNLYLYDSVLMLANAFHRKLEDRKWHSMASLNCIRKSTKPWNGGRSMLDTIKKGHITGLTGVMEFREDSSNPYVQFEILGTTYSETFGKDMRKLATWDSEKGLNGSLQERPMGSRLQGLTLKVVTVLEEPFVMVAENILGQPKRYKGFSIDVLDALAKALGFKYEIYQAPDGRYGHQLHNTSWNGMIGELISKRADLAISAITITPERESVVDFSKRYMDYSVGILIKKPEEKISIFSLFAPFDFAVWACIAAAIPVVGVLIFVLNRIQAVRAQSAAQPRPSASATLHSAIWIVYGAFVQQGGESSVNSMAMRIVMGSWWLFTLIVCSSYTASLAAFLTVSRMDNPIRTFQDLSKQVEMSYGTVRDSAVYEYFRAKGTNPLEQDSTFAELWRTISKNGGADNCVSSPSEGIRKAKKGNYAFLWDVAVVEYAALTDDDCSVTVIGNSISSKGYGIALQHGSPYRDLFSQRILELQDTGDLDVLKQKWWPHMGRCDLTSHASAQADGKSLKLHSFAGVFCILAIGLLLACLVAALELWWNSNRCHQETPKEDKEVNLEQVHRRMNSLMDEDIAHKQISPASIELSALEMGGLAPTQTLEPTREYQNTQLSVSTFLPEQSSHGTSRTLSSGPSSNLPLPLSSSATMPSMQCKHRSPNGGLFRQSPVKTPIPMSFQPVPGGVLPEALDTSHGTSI
Nature of the test: TEVC of constitutive current, Xenopus oocytes expressing GluD1-N651S. To be noted: positive = increase, negative = decrease of activity.

Setting [1] is: 100 μM pentamidine, positive = increase, negative = decrease of activity.
Setting [2] is: normalized to NMDG+ − Na+ difference current.
[3] abbreviates: potentiation of constitutive current, read-out: Ca2+ EC50 [95% CI].
Where [4] appears, read: read-out: Ca2+ potentiation EC50.
Setting [5] is: 10 mM D-serine, positive = increase, negative = decrease of activity.
The mark [6] stands for this setting: percent of constitutive leak current (NMDG+/Na+ difference current).

As a reminder, the IC50 is the concentration needed to halve the response being measured. As for `N=C(N)c1ccc(OCCCCCOc2ccc(C(=N)N)cc2)cc1` [Pentamidine, pentamidine], the results for the “Pentamidine effect (Baseline −100 μM Pentamidine)” value at GluD2-T649A (setting [1]), on GluD2-L656V (setting [1]) and on GluD1-N651S (100 μM pentamidine) were −18 ± 4.8 (14) nA, −640 ± 190 (12) nA and 38 ± 8.3 (10) nA, respectively. For the same molecule, the “Fold increase in pentamidine potency on GluD2-T649A compared to GluD2-A654T” value on GluD2-T649A (IC50 comparison) is ~ 200 fold and > 200 fold. Further, the IC50 was determined as 0.037 µM on GluD2-T649A (inhibition of constitutive channels); 0.036 µM on GluD2-T649A (inhibition of constitutive current, 1 mM Ca2+); 10 µM on GluD2-L656V (read-out: Pentamidine IC50).
As a reminder, the EC50 is the concentration at which the effect is half-maximal. For the molecule `[Ca+2]` [Ca^2+], the “Ca2+ EC50 of the relation Ca2+ concentration vs D-serine IC50” value at GluD2-T649A (Hill fit, Fig. S7A) came out at 630 µM. Moreover, the “Hill slope of the relation Ca2+ concentration vs D-serine IC50” value on GluD2-T649A (Hill fit, Fig. S7A) was found to be 1.4. Also, the “Ca2+ % Max (NMDG+ − Na+) Mean ± SEM” value on GluD2-T649A (setting [2]) is recorded as 345 ± 55 (10) %; on GluD2-L656V (setting [2]) it was 260 ± 9.9 (11) %. In addition, the EC50 is 290 µM on GluD2-T649A (setting [3]), 100 to 400 µM on GluD2-T649A (setting [4]), 170 µM on GluD2-L656V (setting [3]) and 100 to 400 µM on GluD2-L656V (setting [4]). For the same molecule, the “Ca2+ EC50 A654T/EC50 variant” value at GluD2-T649A (ratio) worked out at 0.52; at GluD2-L656V (ratio), 0.88.
In the case of `N[C@H](CO)C(=O)O` [D-serine], the “D-serine Hill slope” value at GluD2-T649A (1 mM Ca2+, Fig. S7B) amounted to 2.0. At GluD2-T649A (1 mM Ca2+, Fig. S7B), the “D-serine Maximum” value is on record as 54%. Besides, the “D-Serine effect (Baseline −10 mM D-Serine)” value on GluD2-T649A (setting [5]) is given as −35 ± 5.6 (14) nA; at GluD2-L656V (setting [5]), −460 ± 53 (12) nA; on GluD1-N651S (10 mM D-serine), 7.6 ± 1.6 (10) nA. Moreover, the results for the “D-serine % Max (NMDG+ − Na+) Mean ± SEM” value at GluD2-T649A (setting [6]) and on GluD2-L656V (setting [6]) were 49 ± 2.5 (7) % and 62 ± 3.2 (14) %, respectively. Moreover, the “Reduction of maximum possible activity (Na+ −NMDG+ difference current) by D-serine” value on GluD2-L656V (10 mM D-serine) is ~ 50%.
